Laboratory results published in patent US8679478B2, “Methods of lysosomal storage disease therapy” (Duke University, priority 2010, dated 2014).

Tests used:
Type in all cases: in vivo, mouse
GAA-KO mice [1] = assay: Rotarod testing, liver-targeted gene therapy plus clenbuterol
Procedure: (§1) FIG. 4A-4B depicts enhanced Rotarod performance and weight gain following liver-targeted gene therapy plus clenbuterol treatment. The GAA-KO mice (5 per group) were injected with AAV-LSPhGAA (2×10^10 vector particles/mouse). Vector treated mice were treated with clenbuterol or untreated. Non-vector treated GAA-KO mice were treated with clenbuterol or untreated to serve as controls. Mice were euthanized for tissue analysis 4 weeks after vector injection. […] Mean+/−standard deviation are shown. Statistically significant differences indicated (*=p<0.05; **=p<0.01).
(§2) For in vivo analysis of AAV vectors, stocks were administered intravenously (via the retroorbital sinus) in 3 month-old and 15 month-old GAA-KO mice, and to 3 month-old tolerant GAA-KO and DKO mice. Clenbuterol (30 μg/ml) was administered to groups of 3 month-old vector-injected and mock-injected male GAA-KO mice in drinking water for 28 days. At the indicated time points post-injection, tissue samples were obtained and processed as described below. All animal procedures were done in accordance with Duke University Institutional Animal Care and Use Committee-approved guidelines. GAA activity and glycogen content were analyzed essentially as described (Sun et al., Mol. Ther., 2005, 11:889-898; Sun et al., Mol. Ther., 2005, 11: 57-65). Rotarod testing was performed essentially as described (Sun, B. D. et al. 2005). […]

GAA-KO mice [2] = assay: Weight gain, liver-targeted gene therapy plus clenbuterol; conditions: vector plus clenbuterol v. mock treatment; p=0.06
Procedure: as §1, §2

CI-MPR = assay: Western blot and densitometry of CI-MPR expression in skeletal muscle and brain; conditions: following clenbuterol treatment
Procedure: Western blot detection of CI-MPR and control proteins, β-actin or glyceraldehydes-3-phosphate dehydrogenase (GAPDH) in the tissues of GAA-KO mice is shown, with molecular weights indicated. Each lane represents an individual mouse. Equivalent quantities of tissue homogenate were loaded for each mouse. […] Mean+/−standard deviation are shown. Statistically significant differences indicated (*=p<0.05; **=p<0.01).
(§3) For in vivo analysis of AAV vectors, stocks were administered intravenously (via the retroorbital sinus) in 3 month-old and 15 month-old GAA-KO mice, and to 3 month-old tolerant GAA-KO and DKO mice. Clenbuterol (30 μg/ml) was administered to groups of 3 month-old vector-injected and mock-injected male GAA-KO mice in drinking water for 28 days. At the indicated time points post-injection, tissue samples were obtained and processed as described below. All animal procedures were done in accordance with Duke University Institutional Animal Care and Use Committee-approved guidelines. GAA activity and glycogen content were analyzed essentially as described (Sun et al., Mol. Ther., 2005, 11:889-898; Sun et al., Mol. Ther., 2005, 11: 57-65). Rotarod testing was performed essentially as described (Sun, B. D. et al. 2005). Western blotting of hGAA was performed essentially as described (Amalfitano et al., Proc. Natl. Acad. Sci. USA, 1999, 96: 8861-8866) using the hGAA monoclonal antibody (courtesy of Genzyme Corp., Framingham, Mass.) and the CI-MPR antibody (catalog number GTX28093; Gene Tex, Irvine, Calif.).

GAA-KO mice [3] = assay: Rotarod testing, ERT (rhGAA) plus clenbuterol; conditions: rhGAA 20 mg/kg weekly x4 plus clenbuterol v. ERT alone; male mice; p=0.04 at 1 week
Procedure: GAA-KO mice were administered four weekly doses of rhGAA (20 mg/kg), and treated with clenbuterol (n=5) or ERT alone (n=5). […] Mean+/−standard deviation are shown. Statistically significant differences indicated (*=p<0.05; **=p<0.01).
as §3, with “Calif.). […]” for “Calif.).”

[4] = tested on: immune tolerant GAA-KO mice; assay: Rotarod testing, ERT plus β2 agonist (Example 6); conditions: after 4 weeks of treatment; clenbuterol 6 mg/l drinking water plus ERT v. ERT alone
Procedure: GAA-KO mice were administered four weekly doses of rhGAA (20 mg/kg), and treated with medium dose clenbuterol (n=7), albuterol (n=4) or untreated (n=6 or 3). […] Mean+/−standard deviation are shown. P values indicate statistically significant differences (lines).
Two β2 agonists were evaluated in combination with ERT, clenbuterol and albuterol. The dose of clenbuterol was reduced 5-fold from the concentration used in Example 4, to 6 mg/l in drinking water, while albuterol was evaluated at the higher dose (30 mg/l in drinking water). Groups of 3 month-old immune tolerant GAA-KO mice (Raben et al., Human Mol. Genet., 2001, 10:2039-2047) were treated with four weekly doses of rhGAA (20 mg/kg body weight), with or without concurrent β2 agonist treatment.
Mice were sacrificed 7 days after the last injection. Selected tissues were collected for GAA enzyme activity and glycogen content analyses. […] GAA activity and glycogen content analyses, Rotarod testing, and Western blot detection of CI-MPR was performed essentially as described (Koeberl et al., Mol. Genet. Metab., 2011, 103:107-112. Wire hang testing was performed with a 0.5 cm mesh hardware cloth fixed to an 8 by 10 inch frame. Mice were placed on the wire mesh, which was slowly inverted 6 inches over a cage containing paper bedding. The latency, or time until the mouse fell into the cage, was recorded.

[5] = tested on: immune tolerant GAA-KO mice; assay: Histopathology of brain, glycogen staining; conditions: cerebellum; in comparison with ERT alone
Procedure: Histopathology was performed to examine brain involvement, and glycogen accumulations were detected in the cerebellum with ERT alone. Albuterol and clenbuterol each reduced the glycogen staining in the cerebellum, in comparison with ERT alone.

Question: How did the Rotarod latency increase (GAA-KO mice [1]; clenbuterol alone v. mock treatment, p=0.02) turn out when CC(C)(C)NCC(O)c1cc(Cl)c(N)c(Cl)c1 (stereo not drawn) [clenbuterol] was run?
Answer: 26%

Question: What about the Rotarod latency increase (GAA-KO mice [1]; vector plus clenbuterol (30 μg/ml drinking water) v. vector alone, 4 weeks, p<2×10^−5) of the same molecule?
Answer: 75%

Question: What about the weight gain (GAA-KO mice [2]) of the same molecule?
Answer: trend toward greater weight gain

Question: And the “CI-MPR signal (densitometry of Western blots)” value (“CI-MPR signal” for short) (CI-MPR; EDL)?
Answer: increased

Question: And the “CI-MPR signal” value (CI-MPR; cerebellum)?
Answer: increased

Question: What about the “CI-MPR signal” value (CI-MPR; cerebrum) of the same molecule?
Answer: increased

Question: And the Rotarod latency (GAA-KO mice [3])?
Answer: increased Rotarod latency

Question: And the Rotarod latency [4]?
Answer: significantly increased

Question: And the “glycogen staining (histopathology)” value [5]?
Answer: reduced
